Assay [1] deals with C57BL mice, polymicrobial septic mouse model. Put plainly: In-vivo septic shock model (cecum ligation and puncture). The note with it: 20 mg/Kg s.c. once a day for 5 days; FIG. 5. How it is done:
The polymicrobial septic mouse model of severe sepsis (Belikoff et al. The Journal of Immunology, 2011, 186: 2444-2453), was induced in wild-type (WT) C57BL mice using cecum ligation and puncture (CLP) approach. In summary, mice were anesthetized, a 1.5-cm, longitudinal incision in the lower right quadrant of the abdomen was performed and the cecum was exposed. The distal two third of the cecum was ligated with 4-0 silk suture and punctured doubly with an 18-gauge needle. The cecum was then replaced into the peritoneal cavity and the incision was closed with surgical staples. After that, the mice were resuscitated with sterile saline injected subcutaneously and allowed free access to food and water after awaking.
Following this procedure, mice were then injected s.c. once a day, for 5 days, with either vehicle or with 20 mg/Kg of GPS-725.017 (SEQ ID NO: 12).

Assay [2] has as its system Mice/Balb/c, hind limb ischemia model. Put plainly: Mouse hind limb ischemia/angiogenesis model. In kind it is in vivo. The text has this:
The object of this study was to determine whether administration of the test items, peptides AB-017 (SEQ ID NO: 12) and 725-106 (positive control, SEQ ID NO: 2) can enhance angiogenesis, subsequently inducing clinical and motor function improvement in a hind limb ischemia model. The principle of the test is based on changes in perfusion rate, clinical signs and histological parameters (necrosis) following administration of the test compounds.
Each tested group included 4-7 mice per group. Intraperitoneal (i.p) injection is the preferred route of administration of the test items in this model and DMSO/PEG is used as vehicle to prepare the test item solution.
Tested peptides were dissolved in 100% DMSO. Thereafter Polyethylene glycol (PEG) 400 is added to the solution. Sterile water was used to dilute to a final concentration of 0.5% DMSO/10% PEG 400/H2O to result 2 mg/ml. The solution is prepared and divided into marked aliquots and stored at −70° C.
Species/Strain: Mice/Balb/c male˜8 weeks
Animals were housed under standard laboratory conditions, air conditioned and filtered (HEPA F6/6) with adequate fresh air supply (31 air changes/hour). Animals were kept in a climate controlled environment. Temperatures range is between 20-24° C. and RH is between 30-70% with 12 hours light and 12 hours dark cycle. Animals were housed in polyethylene cages (7/cage) measuring 35×30×15 cm, with stainless steel top grill facilitating pelleted food and drinking water in plastic bottle; bedding: steam sterilized clean paddy husk. Bedding material is changed along with the cage at least twice a week. Diet: Animals are fed ad libitum a commercial rodent diet (Teklad Certified Global 18% Protein Diet cat #: 106S8216). Animals have free access to drinking water obtained from the municipality supply. Surgical Procedure: Anesthesia: Isoflurane 1.5-3% in a mixture of O2/N2O, under spontaneous respiration. All four limbs of the animal were taped down in order to facilitate the animal for surgery. Both hind legs of the animals are shaved and disinfected. On the operated leg, the right leg in all animals, an incision was made from the inguinal area to the proximity of the knee. The femoral vein/artery/nerve were exposed. The artery is dissected free from the vein, nerve and surrounding fascia. Distal to its bifurcation with the profound femoral artery, using 6-0 silk suture the artery is ligated twice, and thereafter transected between these two points (see prox-A-group model appendix I). The surgical wound is closed with 6-0 silk and the mouse is returned to its cage. The left leg is untreated control in all animals. Exclusion criteria: Only mice, whose mean flux measurement post surgery is […] and ≦50% of the pre surgical measurement, are incorporated into the study. Mice whose mean flux measurement post surgery out of this range were excluded from the study.
[formula] Drug administration: All animals were dosed by IP administration at a dose volume of 10 ml/kg.
Tests and Evaluation: Body weight: Body weights were measured prior to surgery, prior to each dosing, and prior to necropsy. Blood flow measurement: Using a Laser Doppler apparatus (Perimed PeriScan PIM II System, Technical manual available at test facility) Blood flow was measured (operated leg & control leg) while the legs are in their natural resting position at the following time points: Before surgery (after shaving) & Post surgery (Day 0); Day 1; Day 8; Day 15; Day 22; and Day 29. Each time point for each mouse consists of three measurements. Blood flow was measured, additionally, in first 10 animals at Pre before shaving. […]

The subject of assay [3] is blood vessels of mice (Evans-Blue leakage). The experiment in a line: Inhibition of blood-vessel leakiness (Evans-Blue leakage in mice). Type of assay: in vivo, mouse. Here is the method: The peptide of SEQ ID NO: 12 (Myr-Gly-Nle-Arg-Pro-Tyr-NH2), or vehicle (10% PEG-400, 90% DDW), were injected i.p. to mice, in an amount of 20 or 40 mg/Kg. 5 min, 10 min, 1 hr or 4 hrs later, 0.2 ml per 25 g mouse (40 mg/Kg) of 5 mg/ml Evans-Blue solution in double distilled water (DDW) was injected i.p. The experiment was terminated after 30 min and skull was opened to view the brain surface (“Neurosurgery”) and assess the amount of Evans-Blue leaking from blood vessels.
Principle of peripheral vessels staining: Evans-Blue; it is a poly-anionic compound having a M.W. of 960 Dalton, that binds tightly to albumin and being used to track vessel-permeability. In case of blood-vessel leakiness, the Evans-Blue-albumin complex escapes from the blood-stream into the surrounding interstitial fluid with the result of blue coloring of the extremities and the bluish appearance at the brain surface.
In a specific experiment, 40 mg/kg of peptide of SEQ ID NO: 12 or vehicle were injected, each to 2 mice, i.p. 5 min before color injection. Evans-blue, at 40 mg/kg was then injected i.p. and 30 min later “Neurosurgery” was performed and the escape of the color from the blood stream was monitored as manifested by the bluish appearance of the brain surrounding tissue.
In another experiment, 40 mg/kg of peptide SEQ ID NO: 12 were injected to mice, i.p. 1 or 4 hours before color injection (Evans-blue, 40 mg/kg i.p. for 30 minutes). Control mice received i.p. injection of vehicle ([…]) 1 hour before color injection.

From patent US9873724B2, “Pro-angiogenic peptides and peptide conjugates” (Yissum Research Development Company of the Hebrew …, priority 2013, dated 2018) come the findings set out here.

“And” between values parts separate entries of the source, which are not always exact repeats. Equal entries are not always repeated. Square brackets hold non-standard residues; d marks the D form. * marks the point of attachment. Myristoyl = CCCCCCCCCCCCCC(=O)*; Nle = CCCC[C@H](N)C(=O)O

Consider “Myr-Gly-Nle-Arg-Pro-Tyr-NH2 (Myristoyl-G[Nle]RPY-NH2; SMILES CCCCCCCCCCCCCC(=O)NCC(=O)N[C@@H](CCCC)C(=O)N[C@@H](CCCNC(=N)N)C(=O)N1CCC[C@H]1C(=O)N[C@@H](Cc1ccc(O)cc1)C(N)=O) [AB-017]”, for which the “rescue from death in septic-shock model” value in assay [1] is listed as “rescue mice from death”. Also, the “perfusion, leg function and leg necrosis (in words)” value in assay [2] (20 mg/kg IP twice weekly for 4 weeks, vs vehicle control and 725-106) is “significant improvement of the ischemic leg”. Besides, the “Functional evaluation at day 15 (individual mouse)” value in assay [2] (20 mg/kg IP twice weekly, function score 0 (flexing the toes) to 3 (dragging of foot), one value per mouse, listed as AB-107) is 3.0 (2×) and 2.0 and 0.0 (4×). In assay [2] (20 mg/kg IP twice weekly, group average of ischemic score), the “Hind limb ischemia evaluation at day 15, Average” value is 0.7. Also, in assay [2] (20 mg/kg IP twice weekly, ischemic score 0 (absence of necrosis) to 4 (total hind-limb loss), one value per mouse, listed as AB-107), the “Hind limb ischemia evaluation at day 15 (individual mouse)” value is 2.0 (2×) and 0.0 (4×) and 1.0. Besides, the “Evans-Blue leaking from blood vessels (brain and periphery)” value in assay [3] (20 mg/kg i.p. 10 min before Evans-blue 40 mg/kg i.p., 30 minutes) is recorded as “no color was leaking”. The “Evans-Blue leaking from blood vessels (brain)” value in assay [3] (40 mg/kg i.p. 5 min before Evans-blue 40 mg/kg i.p., read 30 min later) was “no color was leaking”; in assay [3] (40 mg/kg i.p. 1 hr before Evans-blue 40 mg/kg i.p., 30 minutes), “no color was leaking”; in assay [3] (40 mg/kg i.p. 4 hrs before Evans-blue 40 mg/kg i.p., 30 minutes), “only a partial protection”.
